According to patent US6166035A, “1,4-dihydropyridine derivatives and their use in therapy” (Laboratoire L. Lafon, priority 1997, dated 2000):

How the values were obtained:
[1] = test system: coronary output of anaesthetized dogs; test: Effect on the coronary output of anaesthetized dogs; type: in vivo, dog; settings: intravenous
Experimental: 4) Effect on the coronary output of anaesthetized dogs
The animals receive increasing doses of compound every 30 minutes via the intravenous route. The effect on the coronary output is evaluated by means of its percentage of maximum variation after each dose.

[2] = test system: conscious, spontaneously hypertensive rats; test: Hypotensive effect in conscious, spontaneously hypertensive rats; type: in vivo, rat; settings: gastric route
Experimental: 3) Hypotensive effect in conscious, spontaneously hypertensive rats
The animals receive increasing doses of compound every 90 minutes via the gastric route.
The hypotensive effect is evaluated by means of the percentage of maximum reduction of the average arterial pressure after administration of each dose.

isolated rat aorta = test: Anticalcium activity: antagonism of KCl-mediated contraction of isolated rat aorta; settings: KCl 5×10^-2 M.l^-1 contraction, isolated rat thoracic aorta ring
Experimental: 2) Anticalcium activity by measuring the KCl-mediated antagonism of the contraction of isolated rat aorta
The technique employed uses a ring of arterial vascular tissue taken from rat thoracic aorta and then kept alive in aerated bicarbonated Krebs buffer, and subjected to an initial tension of 2 g. The introduction of potassium chloride KCl (in a volume of 300 μl) at a concentration 5×10^-2 M.l^-1 into the Krebs buffer bath generates a sustained contraction whose amplitude (isometric tension) is antagonized by the addition of a solution of the test compound of increasing concentrations, each addition being made every 5 minutes. The molar concentration of the test compound which reduces by 50% the maximum contraction observed in KCl is then calculated. This concentration is the 50% inhibitory concentration (or IC50).

[3] = Therapeutic index: minimum arrhythmogenic dose / dose active on the coronary output, anaesthetized dogs; type: in vivo, dog; parameters: minimum arrhythmogenic dose: unit: µg/kg; settings: dog, in vivo; ratio, anaesthetized dogs, intravenous route; read-out: Arrhythmogenic dose/dose which is active on the coronary output (therapeutic index)
Source text: (§1) 5) Therapeutic index The therapeutic index is defined as being the ratio between the minimum arrhythmogenic dose and the dose which increases the basal coronary output by 50% (this dose is referred to hereinbelow as the "dose which is active on the coronary output").

anaesthetized dogs = test: as above; type: in vivo, dog; parameters: minimum arrhythmogenic dose: unit: µg/kg; settings: for ED (50% increase): Canis lupus familiaris, iv, read-out: dose which is active on the coronary output (increases the basal coronary output by 50%); for minimum arrhythmogenic dose: anaesthetized dogs, intravenous route
Source text: as §1

[4] = molecular target: T1, DHP sites of rat cardiac ventricles (Rattus norvegicus, UniProt P22002); test: Anticalcium activity: affinity for the DHP sites of rat cardiac ventricles, displacement of (+)-[3H]-PN 200-110; type: binding; settings: displacement of (+)-[3H]-PN 200-110, rat cardiac ventricle membranes, 30 minutes, 30° C.
T1 construct: membrane preparation of the receptors, this preparation being obtained after dissecting the ventricles; from tissue; host or cells: rat cardiac ventricles (membrane preparation)
T1 sequence (P22002 whole entry, other chains not shown): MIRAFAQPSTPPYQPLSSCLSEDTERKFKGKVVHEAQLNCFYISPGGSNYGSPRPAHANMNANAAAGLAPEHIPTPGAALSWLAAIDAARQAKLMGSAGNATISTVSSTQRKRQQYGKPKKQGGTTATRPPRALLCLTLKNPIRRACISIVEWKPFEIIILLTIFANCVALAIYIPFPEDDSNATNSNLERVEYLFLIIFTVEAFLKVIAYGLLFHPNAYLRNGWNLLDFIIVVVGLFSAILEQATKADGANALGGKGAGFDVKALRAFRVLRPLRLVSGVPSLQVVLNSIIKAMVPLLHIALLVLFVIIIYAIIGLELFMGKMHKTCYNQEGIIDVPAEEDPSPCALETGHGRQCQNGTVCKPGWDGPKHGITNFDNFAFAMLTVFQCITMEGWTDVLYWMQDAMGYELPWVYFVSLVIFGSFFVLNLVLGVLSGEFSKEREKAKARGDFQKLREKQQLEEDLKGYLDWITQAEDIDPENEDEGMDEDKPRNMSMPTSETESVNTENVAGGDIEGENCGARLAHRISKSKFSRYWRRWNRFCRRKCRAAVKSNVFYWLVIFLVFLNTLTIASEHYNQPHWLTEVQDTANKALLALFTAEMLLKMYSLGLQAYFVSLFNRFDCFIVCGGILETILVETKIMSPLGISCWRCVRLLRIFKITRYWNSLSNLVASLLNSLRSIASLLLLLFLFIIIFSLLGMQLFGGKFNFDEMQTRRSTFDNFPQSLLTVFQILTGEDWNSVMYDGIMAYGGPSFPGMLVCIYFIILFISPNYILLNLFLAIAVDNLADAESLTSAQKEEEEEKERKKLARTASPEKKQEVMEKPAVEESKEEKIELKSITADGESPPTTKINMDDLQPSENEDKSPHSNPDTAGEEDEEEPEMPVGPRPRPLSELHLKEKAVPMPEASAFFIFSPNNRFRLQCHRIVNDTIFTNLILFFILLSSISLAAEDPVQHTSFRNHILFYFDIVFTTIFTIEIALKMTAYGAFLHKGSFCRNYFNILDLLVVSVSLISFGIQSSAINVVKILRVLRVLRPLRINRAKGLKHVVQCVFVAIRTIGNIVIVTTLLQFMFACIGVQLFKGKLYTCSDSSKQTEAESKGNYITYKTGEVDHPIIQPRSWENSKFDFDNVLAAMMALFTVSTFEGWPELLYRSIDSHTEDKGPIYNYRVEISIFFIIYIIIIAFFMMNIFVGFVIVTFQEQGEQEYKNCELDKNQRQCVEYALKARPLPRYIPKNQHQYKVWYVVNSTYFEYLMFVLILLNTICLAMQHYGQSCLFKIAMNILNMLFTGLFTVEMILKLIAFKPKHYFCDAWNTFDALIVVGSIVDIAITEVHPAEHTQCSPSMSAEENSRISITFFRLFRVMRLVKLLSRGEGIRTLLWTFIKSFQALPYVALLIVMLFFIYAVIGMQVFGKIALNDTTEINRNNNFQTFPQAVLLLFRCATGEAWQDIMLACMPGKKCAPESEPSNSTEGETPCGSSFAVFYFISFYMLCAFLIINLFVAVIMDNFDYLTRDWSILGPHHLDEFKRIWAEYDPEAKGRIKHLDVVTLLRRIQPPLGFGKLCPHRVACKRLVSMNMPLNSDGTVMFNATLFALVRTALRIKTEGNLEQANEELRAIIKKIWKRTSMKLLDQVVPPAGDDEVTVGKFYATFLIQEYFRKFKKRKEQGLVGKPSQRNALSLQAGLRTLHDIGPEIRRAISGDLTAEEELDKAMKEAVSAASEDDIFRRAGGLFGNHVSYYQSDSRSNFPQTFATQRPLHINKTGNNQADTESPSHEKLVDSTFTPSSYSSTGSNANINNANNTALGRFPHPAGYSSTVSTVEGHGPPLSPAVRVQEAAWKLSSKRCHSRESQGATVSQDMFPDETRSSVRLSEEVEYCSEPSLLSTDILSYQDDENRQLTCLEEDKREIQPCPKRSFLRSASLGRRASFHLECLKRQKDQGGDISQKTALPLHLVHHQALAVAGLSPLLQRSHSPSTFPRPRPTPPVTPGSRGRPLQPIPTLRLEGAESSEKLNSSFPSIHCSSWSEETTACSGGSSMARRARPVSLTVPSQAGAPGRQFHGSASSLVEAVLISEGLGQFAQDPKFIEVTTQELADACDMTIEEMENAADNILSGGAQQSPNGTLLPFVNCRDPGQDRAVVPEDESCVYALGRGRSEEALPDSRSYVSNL
T1 sequence (P54290 25-944 partner limits assumed, other chains not shown): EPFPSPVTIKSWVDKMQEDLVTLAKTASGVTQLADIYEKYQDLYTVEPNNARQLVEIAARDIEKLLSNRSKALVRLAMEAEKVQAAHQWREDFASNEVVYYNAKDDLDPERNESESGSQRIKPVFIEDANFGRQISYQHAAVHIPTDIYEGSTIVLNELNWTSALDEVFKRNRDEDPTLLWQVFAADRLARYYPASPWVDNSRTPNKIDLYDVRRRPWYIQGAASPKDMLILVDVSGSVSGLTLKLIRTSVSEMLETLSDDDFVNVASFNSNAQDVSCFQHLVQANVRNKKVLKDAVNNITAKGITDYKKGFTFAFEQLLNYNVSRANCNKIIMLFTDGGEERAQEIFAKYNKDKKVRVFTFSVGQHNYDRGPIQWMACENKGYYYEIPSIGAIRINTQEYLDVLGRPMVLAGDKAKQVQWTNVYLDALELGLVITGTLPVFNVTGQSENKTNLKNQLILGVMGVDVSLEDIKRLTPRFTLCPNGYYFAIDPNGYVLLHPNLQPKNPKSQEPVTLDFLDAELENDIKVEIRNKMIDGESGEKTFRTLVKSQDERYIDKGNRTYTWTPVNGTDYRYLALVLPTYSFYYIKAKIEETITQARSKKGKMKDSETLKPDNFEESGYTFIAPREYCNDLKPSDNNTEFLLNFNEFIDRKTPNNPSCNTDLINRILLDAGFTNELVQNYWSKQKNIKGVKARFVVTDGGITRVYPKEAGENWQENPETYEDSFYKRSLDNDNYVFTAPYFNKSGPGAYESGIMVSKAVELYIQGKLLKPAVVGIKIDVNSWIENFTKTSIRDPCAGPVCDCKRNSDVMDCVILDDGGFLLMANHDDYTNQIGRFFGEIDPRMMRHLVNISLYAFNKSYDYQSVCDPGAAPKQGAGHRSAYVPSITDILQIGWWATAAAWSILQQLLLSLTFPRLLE
T1 sequence (P54290 945-1091 partner limits assumed, other chains not shown): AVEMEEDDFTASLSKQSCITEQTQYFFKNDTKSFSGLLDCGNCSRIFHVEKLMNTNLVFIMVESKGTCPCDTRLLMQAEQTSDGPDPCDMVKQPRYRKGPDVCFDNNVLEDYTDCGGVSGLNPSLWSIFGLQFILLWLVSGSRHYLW
Experimental: 1) Anticalcium activity by measuring the affinity for the DHP sites of rat cardiac ventricles
These membrane preparations are placed in contact with the specific radioactive ligand (+)-[^3 H]-PN 200-110 and the test compound, at different concentrations. The suspension is stirred for 30 minutes at a temperature of 30° C. The reaction is then stopped by filtration using a Harvester-type system. The filter is introduced into a counting flask containing scintillation liquid. The radioactivity present on each filter is then measured by counting in a β-counter with liquid scintillation.
The intensity of the binding to the membrane receptors is defined by the (molar) concentration of the test compound which is needed to displace 50% of the amount of the specific ligand (+)-[^3 H]-PN 200-110 prebound to the DHP sites. This concentration is the IC50 concentration.

[5] = dose +10 μg/kg, increasing doses every 30 minutes
[6] = dose +20 μg/kg, increasing doses every 30 minutes
[7] = dose +40 μg/kg, increasing doses every 30 minutes
[8] = dose +80 μg/kg, increasing doses every 30 minutes
[9] = dose +160 μg/kg, increasing doses every 30 minutes
[10] = dose +320 μg/kg, increasing doses every 30 minutes
[11] = dose +10 mg/kg, increasing doses every 90 minutes
[12] = dose +30 mg/kg, increasing doses every 90 minutes

Row | Structure (SMILES) | percentage of maximum variation of the coronary output ([1]; dose 5 μg/kg) | percentage of maximum variation of the coronary output [1, 5] | percentage of maximum variation of the coronary output [1, 6] | percentage of maximum variation of the coronary output [1, 7] | percentage of maximum variation of the coronary output [1, 8] | percentage of maximum variation of the coronary output [1, 9] | percentage of maximum variation of the coronary output [1, 10] | percentage of maximum reduction of the average arterial pressure ([2]; dose 3 mg/kg) [%] | percentage of maximum reduction of the average arterial pressure [2, 11] [%] | percentage of maximum reduction of the average arterial pressure [2, 12] [%] | IC50 (isolated rat aorta) [nM] | selectivity ratio [3] | ED (50% increase) (anaesthetized dogs) [mg/kg] | minimum arrhythmogenic dose (anaesthetized dogs) | IC50 [4] [nM]
1 | COC(=O)C1=C(C)NC(C)=C(C(=O)O[C@@H]2CCCN(CCCCC(=O)c3cccs3)C2)[C@H]1c1cccc([N+](=O)[O-])c1 [Example 1, (4S,3'R)(-)N-[4-(2-thienoyl)-butyl]piperid-3'-yl 2,6-dimethyl-4-(3-nitrophenyl)-5-methoxycarbonyl-1,4-dihydropyridine-3-carboxylate] | 12% | +28% | +56% | +72% | +81% | +67% | +64% | 0 | -22 | -45 | 130 | 32 | 0.02 | 640 | 15
2 | COC(=O)C1=C(C)NC(C)=C(C(=O)O[C@@H]2CCN(CCCCC(=O)c3c(OC)cc(OC)cc3OC)C2)[C@H]1c1cccc([N+](=O)[O-])c1 [Example 2, (4S,3'R)(-)N-[4-(2,4,6-trimethoxybenzoyl)butyl]pyrrolidin-3'-yl 2,6-dimethyl-4-(3-nitrophenyl)-5-methoxycarbonyl-1,4-dihydropyridine-3-carboxylate] | +16% | +14% | +34% | +78% | +68% | +59% | +33% | – | – | – | – | 16 | 0.04 | 640 | 7.8
3 | COC(=O)C1=C(C)NC(C)=C(C(=O)O[C@@H]2CCCN(CCCCC(=O)c3ccc[nH]3)C2)[C@H]1c1cccc([N+](=O)[O-])c1 [Example 3, (4S,3'R)(-)N-[5-(1H-pyrrol-2-yl)-5-oxopentyl]piperid-3'-yl 2,6-dimethyl-4-(3-nitrophenyl)-5-methoxycarbonyl-1,4-dihydropyridine-3-caroxylate] | +7% | +30% | +59% | +76% | +84% | +84% | +59% | -12 | -21 | -54 | 160 | 32 | 0.02 | 640 | –
4 | COC(=O)C1=C(C)NC(C)=C(C(=O)O[C@@H]2CCCN(CCCC(=O)c3cccs3)C2)[C@H]1c1cccc([N+](=O)[O-])c1 [Example A, reference compound] | – | – | – | – | – | – | – | – | – | – | – | 1 | 0.64 | 640 | –
5 | COC(=O)C1=C(C)NC(C)=C(C(=O)O[C@@H]2CCN(CCCC(=O)c3c(OC)cc(OC)cc3OC)C2)[C@H]1c1cccc([N+](=O)[O-])c1 [Example B, reference compound] | – | – | – | – | – | – | – | – | – | – | – | 1 | 0.64 | 640 | –
